In US4551460A, “Pyrido[2,1-b]quinazoline derivatives useful as agents for treatment of allergic conditions and vascular disorders involving thrombosis” (priority 1983, dated 1985):
pIC50: −log10 of the molar value. Structures can show the parent of a compound that is named as a salt. Where two headings read alike, the source gives them in different places.

Key:
[1] = test system: histamine-induced constriction in guinea pig ilea; experiment: Antagonism of histamine-induced constriction in guinea pig ilea; details: 1×10^-7 M histamine
Protocol: (f) Antagonism of Histamine-induced Constriction in Guinea Pig Ilea
Antihistaminic activity was determined on a segment of guinea pig ileum that was suspended in a 37° C. bath of oxygenated Tyrodes solution. At 4 minute intervals, the ileum was challenged with 1×10^-7 M histamine for sufficient time to produce a peak contraction and then washed with fresh Tyrodes solution. After the tissue response to histamine had stabilized, the ileum was pretreated with the standard antihistaminic compound, pyrilamine maleate, for 1 minute prior to rechallenge with histamine, the contraction recorded, and the tissue washed with Tyrodes solution. […] By the IC50 for pyrilamine maleate in the test system was 1×10^-8 M. IC50 's for test drugs were determined by this same procedure.

[2] = test system: leukotriene E induced bronchoconstriction; experiment: LTE-induced bronchoconstriction in guinea pigs, in vivo (i.v. / oral); parameters: species or system guinea pig (Hartley strain); details: for ED50: read-out: ID50 (the source's name)
[3] = test system: SRS-A induced contraction of guinea pig ileum; experiment: In vitro SRS-A antagonism; details: 30 seconds pretreatment
Protocol: (j) In vitro SRS-A Antagonism
SRS-A was determined by bioassay on the guinea pig ileum using a modification of the method described by Orange et al., Adv. Immunol., 1969, 10, 105. A 1.5 cm segment of the ileum, obtained from male guinea pigs (175-200 g), was suspended in an organ bath containing Tyrodes solution with 10^-6 M atropine sulfate and 10^-6 M pyrilamine maleate. The bath was maintained at 37° C. and gassed with a mixture of 95 percent oxygen and 5 percent carbon dioxide. The ileum was attached to a strain gauge transducer and isotonic contractions recorded by a strip chart recorder. A resting tension of 0.5 g was applied and the tissue allowed to equilibrate for 1 hour.
The SRS-A used in these studies was obtained by challenging a large quantity of chopped lung fragments from actively sensitized guinea pigs with egg albumin in vitro. The animals were sensitized to egg albumin by an intraperitoneal injection of the antigen (1 ml of 10 mg/ml) in saline 28 to 45 days prior to challenge. The in vitro challenge was carried out by first preincubating the lung tissue (40 mg/ml) at 37° C. in Tyrodes solution for 5 minutes, adding the egg albumin ([…] final concentration) to the fragments and after a 10 minute challenge, separating the media containing the SRS-A from the lung tissue by filtration on Whatman #1 filter paper. The concentration of SRS-A in the filtrate was calibrated by comparison of the contraction amplitude elicited in the bioassay system by a given volume of the supernatant with contractions obtained by varying concentrations of histamine. One unit of SRS-A is equivalent to that quantity which will give the same contraction as 5 ng of histamine. After standarization, the SRS-A was stored in small aliquots at -80° C. for further use. […] SRS-A antagonism was determined by pretreating the ileum with drug for 30 seconds prior to the addition of a concentration of SRS-A which have a submaximal response, determination of the amplitude of contraction elicited in the presence of drug and then washing the ileum with Tyrodes. […]

[4] = test system: leukotriene E induced bronchoconstriction; experiment: Guinea pig bronchoconstriction, in vivo (aerosol); parameters: species or system guinea pig (Hartly strain); details: aerosol at concentration inhibiting bronchoconstriction by 80%
Protocol: (c) Guinea Pig Bronchoconstriction, In Vivo (Aerosol):
Male guinea pigs (Hartly strain) weighing 300 to 500 g are anesthetized with urethane (2 g/kg) intraperitoneally and a polyethylene cannula is inserted into the jugular vein for drug administration. Tracheal pressure is recorded from a cannula inserted in the trachea and connected to a Statham pressure transducer. After surgical preparation of the animals, a period of time is allowed for pulmonary functions to stabilize. The test compound is administered according to the following protocol. Propranolol (0.1 mg/kg) is administered intravenously while the animals breathed spontaneously. Five minutes thereafter, the animals are exposed for a five minute period to a 1% (w/v) aerosol solution of test compound (adjusted to an alkaline pH where necessary for drug solubilization) or to distilled water of the appropriate pH (for control purposes). A Monaghan (Model 750) ultrasonic nebulizer is used to administer all test compounds by inhalation. The nebulizer ultrasonic frequency is adjusted to produce particles in the 1-8μ diameter range (average 3μ). Aqueous solutions are prepared fresh and introduced into the chamber of the nebulizer. The output of the nebulizer is made available to the animal by directing a bias flow of aerosol through a y tube connected to the tracheal cannula. At the end of the exposure period, the animals are paralyzed with succinylcholine (1.2 mg/kg, i.v.) and mechanically respirated (Harvard rodent respirator) at 40 breaths/minute and 2.5 cc tidal volume. Animals are then challenged with a maximum constrictory dose of leukotriene E delivered intravenously 30 seconds after administration of the succinylcholine.
The change (cm H2 O) between pre and peak ventilatory pressure readings is averaged for three control animals and five drug treated animals. The percent inhibition is calculated from the following formula:
(Control-Drug Tested/Control)×100
When various drug concentrations are tested, the percent inhibition at each concentration is plotted as log concentration (abscissa) versus percent inhibition (ordinate) and the IC50 is determined from linear regression analysis.
In order to determine the aerosol half-life (t 1/2), the animals are prepared as described above, except that the time between aerosol exposure and challenge with leukotriene E is varied. All compounds are administered at the concentration necessary to inhibit leukotriene-induced bronchoconstriction by 80%. Biological half-life is calculated from plots of time (abscissa) versus log percent inhibition (ordinate).

[5] = test system: leukotriene E (LTE) induced skin wheal formation in rat skin; experiment: LTE-induced skin wheal formation in rat; format: in vivo; details: for ED50: rat skin wheal, read-out: ID50 (the source's name)
Protocol: (a) Methodology for LTE-induced Skin Wheal Formation in Rat. The ability of a drug to inhibit leukotriene E (LTE) induced skin wheal formation in rat skin is measured. In this model system a dose of LTE which gives a maximal wheal response, is injected (in 0.05 ml of saline) intradermally into anesthetized rats which have been pretreated for 30 minutes with 50 mg/kg of pyrilamine maleate and 4 mg/kg of methyl […] maleate (both administered intraperitoneally). The animal is then immediately treated with test drug (at 10 mg/kg, i.v.) followed by an intravenous injection of Evans blue (0.5%) into the tail vein of the animal. Thirty minutes later the animals are sacrificed and the increase in capillary permeability induced by LTE is reflected by the migration of dye into the injection point in the skin (the response being quantitated by the size, in mm, of the dye spot in the skin). The average response in 5 animals (4 intradermal injections of LTE per animal) treated with the test compound is compared with the response elicited in a similar group of animals which were not treated with the drug. For oral studies, the test animals are pretreated two hours prior to intradermal injection of LTE.

[6] = test system: platelet activating factor induced platelet aggregation; experiment: Platelet activating factor induced platelet aggregation in vitro; format: cell-based; details: racemic platelet activating factor; read-out: PAF (IC50, platelet activating factor induced platelet aggregation)
Protocol: (§1) (1) Assay for Platelet Aggregation In Vitro
(§2) The turbidometric method of G. V. R. Born, Nature 194, 927 (1962) is used. Platelet rich plasma (PRP) and platelet poor plasma (PPP) are prepared with 0.38% sodium citrate-treated blood. Speed and time of centrifugation varied with different species; human:160 g for 20 minutes, dog:160 g for 15 minutes, guinea pig and rabbit:160 g for 15 minutes, and rat:230 g for 10 minutes. Aggregation is monitored with a Payton dual channel module or Chronolog lumiaggregometer when the release of ATP is simultaneously measured. 0.45 ml of PRP is added to a cuvette and prewarmed to 37° C. The stimulant (arachidonic acid or synthetic platelet activating factor) is added in volumes of 50 μl; all other agents in 5 μl. Vehicles are added to samples not containing agents. 0 to 100% light transmission is set with PRP and PPP. % aggregation is calculated from the % increase in light transmission at 5 minutes after the addition of the aggregating agent. For inhibition of aggregation studies the inhibitor is added first and preincubated with the platelets for 1 minute with stirring, followed by the stimulant. % inhibition is calculated from the % aggregation with and without the test compound. [formula]

[7] = test system: arachidonic acid induced platelet aggregation; experiment: Arachidonic acid induced platelet aggregation in vitro; format: cell-based; details: read-out: AA (IC50, arachidonic acid induced platelet aggregation)
Protocol: as §1, §2

[8] = test system: acetylcholine-induced constriction in guinea pig ilea; experiment: Antagonism of acetylcholine-induced constriction in guinea pig ilea; details: 5.0×10^-7 M acetylcholine; read-out: IC50 antagonism of acetylcholine-induced constrictions
Protocol: (e) Antagonism of Acetylcholine-induced Constriction in Guinea Pig Ilea
Anticholinergic activity was determined on a segment of guinea pig ileum that was suspended in a 37° C. bath of oxygenated Tyrodes solution. At 4 minute intervals, the ileum was challenged with 5.0×10^-7 M acetylcholine for sufficient time to produce a peak contraction and then washed with fresh Tyrodes solution. After the tissue response to acetylcholine had stablized, the ileum was pretreated with the standard anticholinergic, atropine sulfate, for 1 minute prior to rechallenge with acetylcholine, the contraction recorded and the tissue washed with Tyrodes solution. […] The IC50 for atropine was 1×10^-8 M. THe IC50 's for test drugs were determined by this same procedure.

[9] = LD50 in mice (acute toxicity); details: mouse, in vivo, po, orally

| pIC50 [6] | pIC50 [7] | Compound | further results |
| --- | --- | --- | --- |
|  |  | COc1ccc(CN(CCN(C)C)c2ccccn2)cc1 [pyrilamine maleate, reference compound] | pIC50 [1]: 8.00 |
|  |  | CCCc1c(OCC(O)COc2ccc3c(=O)cc(C(=O)O)oc3c2CCC)ccc(C(C)=O)c1O (stereo not shown) [FPL 55712, 7-[3-(4-Acetyl-3-hydroxy-2-propylphenoxy)-2-hydroxypropoxy]-4-oxo-8-propyl-4H-1-benzopyran-2-carboxylic acid, reference compound] | inhibition at 10 mg/kg ([2]; Cavia porcellus, iv, 10 mg/kg): 98%; oral activity, LTE-induced bronchoconstriction ([2]; orally): orally inactive; pIC50 [3]: 7.52; Biological half-life [4]: 77 min; inhibition at 10 mg/kg ([5]; Rattus norvegicus, iv, 10 mg/kg): 88%; oral activity, LTE-induced skin wheal ([5]; orally): inactive orally |
| > 5.00 | < 5.00 | CC(C)c1ccc2nc3ccc(C(=O)OCCCc4cccnc4)cn3c(=O)c2c1 [Example 1, 2-(1-methylethyl)-11-oxo-11H-pyrido[2,1-b]quinazoline-8-carboxylic acid 3-(3-pyridyl)propyl ester] |  |
| > 5.00 | > 5.00 | CC(C)c1ccc2nc3ccc(C(=O)NCCCCCc4ccncc4)cn3c(=O)c2c1 [Example 11, N-[5-(4-Pyridyl)pentyl]-2-(1-methylethyl)-11-oxo-11H-pyrido[2,1-b]quinazoline-8-carboxamide] |  |
| > 5.00 | > 5.00 | CC(C)Oc1ccc2nc3ccc(C(=O)NCCCCc4cccnc4)cn3c(=O)c2c1 [Example 19, 2-(1-Methylethoxy)-N-[4-(3-pyridyl)butyl]-11-oxo-11H-pyrido[2,1-b]quinazoline-8-carboxamide] |  |
| > 5.00 | > 5.00 | O=C(NCCCCc1cccnc1)c1ccc2nc3ccc(O)cc3c(=O)n2c1 [Example 22, 2-Hydroxy-N-[4-(3-pyridyl)butyl]-11-oxo-11H-pyrido[2,1-b]quinazoline-8-carboxamide] |  |
|  |  | CN1[C@@H]2CC[C@H]1CC(OC(=O)C(CO)c1ccccc1)C2 (stereo partly shown) [atropine, atropine sulfate, reference compound] | pIC50 [8]: 8.00 |
| > 5.00 | > 5.00 | CC(C)c1ccc2nc3ccc(C(=O)NCCSc4ccncc4)cn3c(=O)c2c1 [Example 12, N-[2-(4-Pyridylthio)ethyl]-2-(1-methylethyl)-11-oxo-11H-pyrido[2,1-b]quinazoline-8-carboxamide] |  |
|  |  | CCCCC[C@H](O)/C=C/[C@H]1[C@H](O)CC(=O)[C@@H]1C/C=C\CCCC(=O)O [PGE2] | Biological half-life [4]: 2.1 min |
| < 5.00 | > 5.00 | CC(C)c1ccc2nc3ccc(C(=O)NCCCCCn4ccnc4)cn3c(=O)c2c1 [Example 16, N-[5-(1H-Imidazol-1-yl)pentyl]-2-(1-methylethyl)-11-oxo-11H-pyrido[2,1-b]quinazoline-8-carboxamide] |  |
| < 5.00 | > 5.00 | Cc1ccc2nc3ccc(C(=O)NCCCCc4cccnc4)cn3c(=O)c2c1 [Example 17, 2-Methyl-N-[4-(3-pyridyl)butyl]-11-oxo-11H-pyrido[2,1-b]quinazoline-8-carboxamide] |  |
|  |  | CC(C)NCC(O)c1ccc(O)c(O)c1 (stereo not shown) [Isoproterenol] | Biological half-life [4]: 19.4 min |

| Compound | pIC50 [6] | pIC50 [7] | further results |
| --- | --- | --- | --- |
| CC(C)c1ccc2nc3ccc(C(=O)NCCCCc4ccncc4)cn3c(=O)c2c1 [2-(1-methylethyl)-N-[4-(4-pyridyl)butyl]-11-oxo-11H-pyrido[2,1-b]quinazoline-8-carboxamide] | > 5.00 | < 5.00 | ED50 ([2]; Cavia porcellus, iv): 1.9 mg/kg; ED50 ([2]; Cavia porcellus, po, orally (2 hours pretreatment)): 57 mg/kg; LD50 [9]: > 1000 mg/kg; ED50 ([5]; iv): 10 mg/kg; ED50 ([5]; po): 90 mg/kg |
